Laboratory results as given in patent US9303076B2, “Cell-penetrating peptides and uses thereof” (Hoffmann-La Roche Inc., priority 2010, dated 2016).
Entries after “also recorded” stand apart in the source; their conditions may differ.

System: hCMEC/D3 brain endothelial cells
Experiment: uptake into brain endothelial cells (blood-brain-barrier cell culture model)
Assay type: cell-based
Conditions: FITC-conjugated peptide (N- and C-terminal), 5 μM, 1 h, 37° C.; hCMEC/D3 or primary human brain endothelial cells
Protocol: Fluorescein isothiocyanate (FITC)-conjugated NRTN peptides (N-terminal and C-terminal conjugation, respectively) were incubated with hCMEC/D3 brain endothelial cells at 5 μM for 1 h at 37° C. Subsequently, the cells were washed and fixed. Images were taken using a fluorescence microscope.
In order to evaluate potential interactions of the NRTN-derived peptide with endothelial cells forming the blood-brain-barrier, hCMEC/D3 cells or primary human brain endothelial cells were exposed to the NRTN-derived peptide in a blood-brain-barrier (BBB) model (Weksler, B. B. et al. (2005) FASEB J. 19, 1872-1874; Poller, B. et al. (2008) J. Neurochem. 107, 1358-1363). […] Thus, the NRTN-derived peptide localizes to a compartment that is important for BBB functionality (that is, for mediating and controlling transport across the BBB).

GAAEAAARVYDLGLRRLRQRRRLRRERVRA (NRTN peptide sequence; listed as Homo sapiens) [peptide derived from human neurturin]
uptake / localization in brain endothelial cells: accumulates (i.e. internalizes) under these assay conditions in endosomal structures; also recorded: localizes to intracellular endosomal structures
